# Assays:
# silk fibroin powder = biological target: T1, silk fibroin powder (Bombyx mori, UniProt P05790); test: Evaluation of adsorptivity of groups containing aromatic rings to proteins having β-sheet structures; format: binding; settings: for Adsorption rate to fibroin (%): 0.02 mM, 0.15 mL methanol solution on 10 mg silk fibroin powder, dried, 0.15 mL water, 5 minutes stirring, supernatant absorbance; for Adsorptivity: class of adsorption rate to fibroin
# T1 construct: purchased Sigma-Aldrich
# Method: After distillation of methanol by air-drying, 0.15 mL of water was added. After stirring for 5 minutes, the supernatant was collected. The adsorption rate of groups containing aromatic rings to fibroin was calculated from the concentration of groups containing aromatic rings in the collected supernatant liquid and the change in concentration by absorbance measurement, the adsorptivity of groups containing aromatic rings to proteins having β-sheet structures was evaluated using the following criteria.
# “Evaluation A” and “Evaluation B” indicate the level at which groups containing aromatic rings adsorb strongly to proteins having a β-sheet structure, and “Evaluation C” indicates the low adsorptivity of groups containing aromatic rings.
# • A: 90% or more • B: 60% or more but less than 90% • C: Less than 60%
# fibroin sheet = biological target: T2, fibroin sheet (Bombyx mori, UniProt P05790); test: Color intensity of modified fibroin sheet after peroxidase DAB staining; format: biochemical; settings: fibroin sheet adsorbed from 0.3 mg/mL solution; DAB staining solution 1.5 μL, 5 minutes; ImageJ; average of five sheets
# T2 construct: purchased Sigma-Aldrich
# Method: To 0.18 g of silk fibroin powder (manufactured by Sigma-Aldrich), 3.82 g of hexafluoro--2 propanol (HFIP) was added, and the mixture was stirred at room temperature using a mix rotor. Thereafter, filtration was performed using a filter (Millex-AP, Millipore) to obtain a 4.5 wt % fibroin solution. Fibroin solution (0.1 mL) was used to prepare and collect a sheet of fibroin fibers on an aluminum dish using an electrospinning device (NANON-03, MECC).
# After methanol was added to the collected sheet, methanol was removed and dried overnight. The measurement of the weight of the fibroin sheet cut into 20 mm×40 mm size confirmed that it was 1.25 μg/mm^2 fibroin sheet. […]
# To the fibroin sheet modified with Compound 1 obtained in Manufacturing Example 2, a staining solution (1.5 μL) of the peroxidase staining DAB kit (Brown Stain) (manufactured by Nacalai Tesque) was added dropwise and allowed to stand for 5 minutes in a wet box. […] After drying the sheet, the sheet was read by a scanner to acquire image data. The obtained image data were measured for color intensity using ImageJ software. Five sheets were made, and the same evaluation was carried out, and the average value of the color intensity (Color Intensity, hereinafter CI value) was calculated. The calculated CI value was 59.8.
molecule,measurement,setting,value
O=C(O)CCNc1ccc(-c2nc3ccccc3s2)cc1 [Compound 2],Adsorption rate to fibroin (%),silk fibroin powder,79%
same,Adsorptivity,silk fibroin powder,B (60% or more but less than 90%)
O=C(O)CCOc1ccccc1-c1nc2ccccc2s1 [Compound 4],Adsorption rate to fibroin (%),silk fibroin powder,71%
same,Adsorptivity,silk fibroin powder,B (60% or more but less than 90%)
Compound 1: Thioflavin T acid bound to horseradish peroxidase (HRP); one Thioflavin T acid molecule per HRP molecule,CI value (average color intensity),fibroin sheet,59.8
"HRP: horseradish peroxidase (manufactured by Sigma-Aldrich), unmodified comparison",CI value (average color intensity),fibroin sheet,39.5
Thioflavin T acid [reference compound],Adsorption rate to fibroin (%),silk fibroin powder,91%
same,Adsorptivity,silk fibroin powder,A (90% or more)

# Source: US20250361264A1, “PROTEIN MODIFYING REAGENT” (CANON KABUSHIKI KAISHA, priority 2023, published 2025)
